Measurements taken from patent US10253039B2, “Inhibitors of bacterial DNA gyrase with efficacy against gram-negative bacteria” (priority 2014, dated 2019).
In brackets after ≈: the same amount, converted by molar mass.

Key:
Format in all cases: cell-based
[1] = test system: Edwardsiella tarda; test: MIC, microdilution in 96-well plates; settings: D: Edwardsiella tarda
How it was run: (§1)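 Growth inhibition was scored after overnight culture (16-18 hours, 37° C., shaking) by looking for turbidity; the first clear well in a triplicate 2-fold compound series defined the MIC. Strains were inoculated at 1:10000 into LB.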

[2] = test system: E. coli BW25113; test: MIC, microdilution in 96-well plates; settings: Escherichia coli, BW25113, B: E. coli BW25113; read-out: MIC
How it was run: as §1

[3] = test system: Staphylococcus saprophyticus subsp. saprophyticus; test: MIC, 20-strain panel
How it was run: as §1

[4] = test system: Klebsiella pneumoniae subsp. pneumoniae; test: MIC, 20-strain panel; settings: E: Klebsiella pneumoniae subsp. pneumoniae
How it was run: as §1

[5] = test system: Staphylococcus aureus subsp. aureus; test: MIC, 20-strain panel; settings: H: Staphylococcus aureus subsp. aureus, read-out: MIC
How it was run: as §1

[6] = test system: Staphylococcus epidermidis; test: MIC, 20-strain panel
How it was run: as §1

[7] = test system: Salmonella enterica subsp. enterica typhimurium; test: MIC, 20-strain panel; settings: F: Salmonella enterica subsp. enterica Typhimurium
How it was run: as §1

[8] = test system: Shigella flexneri; test: MIC, 20-strain panel; settings: G: Shigella flexneri
How it was run: as §1

[9] = test system: E. coli JW5503 (deltolC); test: MIC, 20-strain panel; settings: Escherichia coli, C: E. coli JW5503 (deltolC)
How it was run: as §1

[10] = test system: Streptococcus pyogenes; test: MIC, 20-strain panel
How it was run: as §1

[11] = test system: Streptococcus agalactiae; test: MIC, 20-strain panel
How it was run: as §1

[12] = test system: E. coli MG1655; test: MIC, 20-strain panel; settings: Escherichia coli, MG1655, A: E. coli MG1655; read-out: MIC
How it was run: as §1

Row | SMILES | MIC [1] [µg/mL] | MIC [2] [µg/mL] | MIC [3] [µg/mL] | MIC [4] [µg/mL] | MIC [5] [µg/mL] | MIC [6] [µg/mL] | MIC [7] [µg/mL] | MIC [8] [µg/mL] | MIC [9] [µg/mL] | MIC [10] [µg/mL] | MIC [11] [µg/mL] | MIC [12] [µg/mL]
1 | O=S(=O)(N[C@@H]1CCN(Cc2ccc(OC3CC3)cc2)C1)c1cnc2ccccc2c1 [Compound 95] | > 8 | > 8 | > 8 | > 8 | > 8 | > 8 | > 8 | > 8 | > 8 | > 8 | > 8 | > 8
2 | O=S(=O)(N[C@@H]1CCN(Cc2ccc(OC3CC3)cc2)C1)c1cccc2cccnc12 [Compound 96] | > 8 | > 8 | > 8 | > 8 | > 8 | > 8 | ~8 (≈ 18.9 µM) | > 8 | 1 (≈ 2.36 µM) | > 8 | > 8 | > 8
3 | N#Cc1cccc(S(=O)(=O)N[C@@H]2CCN(Cc3ccc(N4CCCC4=O)cc3)C2)c1 [Compound 97] | > 8 | > 8 | > 8 | > 8 | > 8 | > 8 | > 8 | > 8 | 4 (≈ 9.42 µM) | > 8 | > 8 | > 8
4 | CC(C)Oc1c(Cl)cc(CN2CC[C@@H](NS(=O)(=O)c3cccc(C(F)(F)F)c3)C2)cc1Cl [Compound 98] | > 8 | > 8 | > 8 | > 8 | > 8 | > 8 | > 8 | > 8 | > 8 | > 8 | > 8 | > 8
5 | O=C1CCCN1c1ccc(CN2CC[C@@H](NS(=O)(=O)c3cccc(C(F)(F)F)c3)C2)cc1 [Compound 99] | > 8 | > 8 | > 8 | > 8 | > 8 | > 8 | > 8 | > 8 | 2 (≈ 4.28 µM) | > 8 | > 8 | > 8
6 | O=C1CCCN1c1ccc(CN2CC[C@@H](NS(=O)(=O)c3cccc(OC(F)(F)F)c3)C2)cc1 [Compound 100] | > 8 | > 8 | > 8 | > 8 | > 8 | > 8 | > 8 | > 8 | 2 (≈ 4.14 µM) | > 8 | > 8 | > 8
7 | N#Cc1cccc(S(=O)(=O)N[C@@H]2CCN(Cc3ccc(-c4ccc(Cl)cc4)cc3)C2)c1 [Compound 101] | > 8 | > 8 | > 8 | > 8 | ~8 (≈ 17.7 µM) | 8 (≈ 17.7 µM) | > 8 | > 8 | 2 (≈ 4.42 µM) | > 8 | > 8 | > 8
8 | O=S(=O)(N[C@@H]1CCN(Cc2ccc(-c3ccc(Cl)cc3)cc2)C1)c1cccc(C(F)(F)F)c1 [Compound 102] | > 8 | > 8 | > 8 | > 8 | 8 (≈ 16.2 µM) | 4 (≈ 8.08 µM) | > 8 | > 8 | ~8 (≈ 16.2 µM) | ~8 (≈ 16.2 µM) | > 8 | > 8
9 | O=S(=O)(N[C@@H]1CCN(Cc2ccc(-c3ccc(Cl)cc3)cc2)C1)c1cccc(OC(F)(F)F)c1 [Compound 103] | > 8 | > 8 | > 8 | > 8 | 8 (≈ 15.7 µM) | 8 (≈ 15.7 µM) | > 8 | > 8 | ~8 (≈ 15.7 µM) | ~8 (≈ 15.7 µM) | > 8 | > 8
10 | O=S(=O)(N[C@@H]1CCN(Cc2ccc(OC3CC3)cc2)C1)c1cccnc1 [Compound 104] | > 8 | > 8 | > 8 | > 8 | > 8 | > 8 | > 8 | > 8 | > 8 | > 8 | > 8 | > 8
11 | O=S(=O)(N[C@@H]1CCN(Cc2ccc(-c3ccccc3)cc2)C1)c1cccc2cccnc12 [Compound 105] | > 8 | > 8 | > 8 | > 8 | > 8 | > 8 | 8 (≈ 18 µM) | > 8 | 0.125 (≈ 0.282 µM) | > 8 | > 8 | > 8
